Tests used:
[1] = tested on: human platelets (thrombin-induced aggregation); experiment: Thrombin-induced platelet aggregation assay; format: cell-based; settings: for IC50 (estimated concentration which inhibits 50% of the aggregation): 0.5 U/mL human thrombin, 37° C., conjugate: average of 10 argatrobans/RSA used
Procedure: (§1) The conjugate was prepared according to the following protocol. A 15 μM solution of RSA in PBS was reacted with 200 μM argatroban-C6 NHS ester for 1 hour at room temperature. Sham samples consist of the RSA incubated for the same length of time at RT in 2% DMSO in PBS. Each of the samples was then concentrated to a final volume of 1.5 mL using Amicon Centricon 30 filtration/concentration devices. The concentrated samples were then desalted on Pierce's 5 ML Kwiksep excellulose plastic desalting columns. The excluded volumes containing RSA or argatroban-C6-RSA were then subjected to BCA microprotein estimation and lyophilization. In addition, these samples were analyzed by LC/MS, sandwich ELISA assays (described above) to measure thrombin binding and immunoblotting.
Platelets were purified from freshly drawn human blood diluted with the anticoagulant buffer ACD (9 mls of blood to 1 mL of buffer). The blood was centrifuged for 25 min at 200×g. The platelet-rich plasma (PRP) was recovered with a plastic pipette. The PRP was centrifuged for 15 min at 3,000×g in v-shaped plastic tubes. The supernatant, called platelet-poor plasma (PPP), was then removed and saved, and the platelets were resuspended in buffer A1 (35 mM citric acid, 103 mM NaCl, 5 mM each of glucose and KCl, 2 mM CaCl2, 1 mM […], 3.5 mg/mL BSA, 0.1 μM PGE1 and 0.3 U/mL of apyrase at pH 6.5). The resuspended platelets were washed 2 times with buffer A1. After the last wash, the platelets were resuspended in buffer B1 (137 mM NaCl, 2.6 mM KCL 12 mM NaHCO3, 0.3 mM NaH2 PO4, 3 mM CaCl2, 1 mM MgCl2, 5 mM glucose, 3.5 mg/mL BSA and […] apyrase at pH 7.4) at a density of 3×10^5 /μL. The platelets were maintained at room temperature until ready for use.
Various parameters relevant to platelet aggregation were obtained on a four channel aggregometer manufactured by AFFI BIO. In brief, the reaction chambers are warmed to 37° C. and are agitated at a rate of 1,200 rpm. Light is passed through the reaction chambers, with 300 μL of buffer B1 used to set the 100% transmittance level for each chamber. From a series of standardization experiments, it was determined that 0.5 U/mL of human thrombin (Sigma) is an optimal aggregating concentration of thrombin and is used to set. the 0% transmittance for the instrument. Standard conditions for the assay involve incubating 250 μL of the platelet suspension with or without 50 μL of inhibitor diluted in buffer in the reaction chambers for 60 seconds at 37° C. The value of transmittance is now set as 0%. After this measurement, thrombin is added to the reaction chambers (20 μl) and transmittance is measured for the next 6 minutes. Samples were performed in triplicate.

[2] = biological target: thrombin from human plasma (Homo sapiens, UniProt P00734); experiment: Km-based fluorogenic assay for inhibition of thrombin (Example 7); format: biochemical; set-up: from tissue; host or cells: human plasma; settings: FIGS. 9 and 10
Procedure: Thrombin from human plasma was obtained from Enzyme System Products, Dublin, Calif., in glycerol:water 1:1, 11.4 mg/ml, 3800 U/mg, MW 36,700, and stored undiluted at -20° C. It was freshly diluted the day of use.
To dilute for the assay, 0.67 μl (25 Units) of thrombin was pipetted into 5 ml of 0.1 mg/ml BSA (from Pierce, Catalog No. 23209, BSA fraction V, a 2 mg/ml stock in saline with sodium azide), in cold PBS (GIBCO, Catalog No. 14190-136, without calcium chloride and magnesium chloride, pH 7.2) and briefly vortexed, yielding a stock of 5 mU thrombin/μl.
The substrate was N-tBOC-β-Benzyl-Asp-Pro-Arg-7-Amido4-Methylcoumarin HCl and was obtained from Sigma, Catalog No. B4028, Lot 122H0070, F.W. 770.3. Five mg was dissolved in […] DMSO for a 4 mM stock. The stock was stored in 200 μl aliquots at -20° C. in the dark.
An alternative substrate was N-tBOC-Val-Pro-Arg-7-Amido4-Methylcoumarin HCl and was obtained from Sigma, Catalog No. B-9385, Lot 53H0805, F.W. of free base 627.7. Five mg was dissolved in 1.863 ml DMSO for a 4 mM stock. The stock was stored in 200 μl aliquots at -20° C. in the dark.
The fluorescent standard was 7-Amido4-Methylcoumarin and was obtained from Aldrich, Catalog No. 25,737-0, MW 175.19. […]
Initial readings were taken to ensure exclusion of rogue wells with abnormally high backgrounds (λ excitation at 360 nm, bandwidth […], λ emission, 460 nm, bandwidth 40 nm). Then, 25 μl of a 10×stock of the putative inhibitor were added per well, mixed for 5 seconds and read kinetically for 10 minutes at ambient temperature to assess background interference and/or any increase in hydrolysis of substrate due to inhibitor.
The thrombin assay was then initiated by adding 25 μl of thrombin/well with a multichannel pipettor and mixed for 5 seconds. The appearence of the fluorescent product (free 7-amido-4-methylcoumarin released from the peptide by thrombin) was followed simultaneously in 48 wells (one reading per minute for 30 minutes, λ excitation at 360 nm, bandwidth 40 nm, λ emission, 460 nm, bandwidth 40 nm). […]

[3] = biological target: human serum albumin (HSA) (Homo sapiens, UniProt P02768); experiment: Mass spectrometric analysis of conjugation to HSA (HPLC/ESIMS); format: binding; settings: HSA 5 μM, 1 hour, room temperature
Procedure: (§2) All samples were analyzed using a high performance liquid chromatograph (HPLC) coupled in-line to an electrospray ionization (ESI) mass spectrometer (MS) which is termed HPLC/ESIMS. Some samples were also analyzed using a matrix-assisted laser desorption ionization (MALDI) time-of-flight (TOF) mass spectrometer which is termed (MALDI-TOFMS).
(§3) Samples for HPLC/ESIMS were either prepared as duplicate reaction samples or were part of the same reaction samples which were used in the ELISA assays described below. These samples were injected directly only the HPLC/ESIMS without any manipulation other than dilution with water, where the PBS, DMSO, and unreacted derivative molecules are separated from the protein-argatroban derivative molecule conjugate. Samples for MALDI-MS were first HPLC-purified and mixed 1:1 directly on the stainless steel analysis plate with a matrix of 10 mg/ml sinnapinic acid in 50% acetonitrile/50% water. The mixture was then dried with a gentle flow of air to allow for crystallization and inserted into the instrument for laser ionization.
(§4) The HPLC is a Hewlett Packard 1090 Series II liquid chromatogram with a diode array detector. The column used for separation is a Brownlee aquapore OD-300 reversed phase C18 column, 1 mm×10 cm, 300 Å pore size, 7 μm particle diameter. The mass spectrometer to which the HPLC is connected using fused Silica capillary tubing is a Sciex API-300 triple quadrupole mass spectrometer with an ionspray source to allow for atmospheric pressure ionization of a liquid flowing continuously into the instrument. The MALDI-TOFMS is a Perceptive Biosystems Voyager Elite DE instrument run in the linear mode.

[4] = biological target: rabbit serum albumin (RSA) (Oryctolagus cuniculus, UniProt P49065); experiment: Mass spectrometric analysis of conjugation to RSA (HPLC/ESIMS, MALDI-TOFMS); format: binding; settings: HPLC/ESIMS, RSA 4.5 μM, 1 hour, room temperature
Procedure: as §2, §3, §4
as §1, with “A 15 μM solution of RSA in PBS was reacted with 200 μM argatroban-C6 NHS ester for 1 hour at room temperature.” left out

[5] = tested on: anti-KLH-argatroban antibody; experiment: Sandwich ELISA using polyclonal anti-KLH-argatroban antibodies; format: binding, rabbit; settings: for concentration down to which detected: hGPA conjugate
Procedure: The reaction was quenched by adding hydroxylamine, pH 7.8 to a final concentration of 50 mM and incubating at room temperature for 10 minutes.
Rabbit anti-HSA monoclonal antibody (Boehringer/Mannheim, catalog no. 605001) diluted 1:5000 in PBS, pH 7.4 or mouse anti-hGPA monoclonal antibody (BioAtlan-tic/CRTS, mAb 5F4, diluted to 10 μg/ml in 0.1 M sodium acetate, pH 4.5 or mAb 3C10 diluted 1:500 or mAb 3E4 diluted 1:1000 in PBS, pH 7.4 - each antibody recognizes a different epitope of hGPA), were used to capture respective proteins by aliquotting 100 μl/well into a NUNC Maxisorp F96 plate (catalog no. 439454). The plates were incubated overnight at 4° C., were then blocked by the addition of 200 μl/well of 1% BSA/PBS and incubated at room temperature for 1 hour. The plates were then washed 5 times by submersion in PBS, pH 7.4.
Samples were incubated on the plates for 2 hours at room temperature and then were washed as above.
The plates were then incubated at room temperature for 30 minutes and washed as above.
Biotinylated goat anti-rabbit IgG (Vector, catalog no. BA1000) was diluted 1:1000 in 1% BSA/PBS, pH 7.4 and 100 μl/well added to all wells. The plates were incubated at room temperature for 30 minutes and washed as above.
Next, 100 μl/well of ABC-HRP (Vector, catalog no. PK4000) was added, each component diluted 1:500 in PBS, pH 7.4, with 0.1% TWEEN 20 and incubated 30 minutes at room temperature prior to use. The plates were then washed 10 times by submersion in PBS, pH 7.4.

[6] = tested on: thrombin; experiment: Sandwich ELISA for thrombin binding of conjugated proteins (anti-thrombin detection); settings: hGPA conjugate, capture mAb 5F4, FIG. 4
Procedure: (§5) The plates were incubated at room temperature for 30 minutes and washed as above.
as §5
Next, 100 μl/well of ABC-HRP (Vector, catalog no. PK4000) was added, each component diluted 1:500 in PBS, pH 7.4, with 0.1% TWEEN 20 and incubated 30 minutes at room temperature prior to use.

Sequence of human serum albumin (HSA) (P02768 25-609): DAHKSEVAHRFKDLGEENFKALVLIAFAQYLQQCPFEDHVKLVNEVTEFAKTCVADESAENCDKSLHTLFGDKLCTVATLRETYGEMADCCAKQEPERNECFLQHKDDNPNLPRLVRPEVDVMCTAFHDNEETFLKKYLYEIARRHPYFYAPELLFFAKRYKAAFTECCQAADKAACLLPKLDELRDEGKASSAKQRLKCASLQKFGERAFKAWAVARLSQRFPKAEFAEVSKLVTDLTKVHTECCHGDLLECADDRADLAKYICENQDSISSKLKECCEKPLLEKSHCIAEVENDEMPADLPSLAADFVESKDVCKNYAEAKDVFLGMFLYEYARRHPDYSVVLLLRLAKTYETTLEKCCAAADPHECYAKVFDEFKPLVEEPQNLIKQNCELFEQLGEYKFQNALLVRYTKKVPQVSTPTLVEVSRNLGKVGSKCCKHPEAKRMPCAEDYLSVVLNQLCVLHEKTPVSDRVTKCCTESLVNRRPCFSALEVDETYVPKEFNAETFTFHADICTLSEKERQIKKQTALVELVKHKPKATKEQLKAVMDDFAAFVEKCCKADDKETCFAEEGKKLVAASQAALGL
Sequence of rabbit serum albumin (RSA) (P49065 25-608): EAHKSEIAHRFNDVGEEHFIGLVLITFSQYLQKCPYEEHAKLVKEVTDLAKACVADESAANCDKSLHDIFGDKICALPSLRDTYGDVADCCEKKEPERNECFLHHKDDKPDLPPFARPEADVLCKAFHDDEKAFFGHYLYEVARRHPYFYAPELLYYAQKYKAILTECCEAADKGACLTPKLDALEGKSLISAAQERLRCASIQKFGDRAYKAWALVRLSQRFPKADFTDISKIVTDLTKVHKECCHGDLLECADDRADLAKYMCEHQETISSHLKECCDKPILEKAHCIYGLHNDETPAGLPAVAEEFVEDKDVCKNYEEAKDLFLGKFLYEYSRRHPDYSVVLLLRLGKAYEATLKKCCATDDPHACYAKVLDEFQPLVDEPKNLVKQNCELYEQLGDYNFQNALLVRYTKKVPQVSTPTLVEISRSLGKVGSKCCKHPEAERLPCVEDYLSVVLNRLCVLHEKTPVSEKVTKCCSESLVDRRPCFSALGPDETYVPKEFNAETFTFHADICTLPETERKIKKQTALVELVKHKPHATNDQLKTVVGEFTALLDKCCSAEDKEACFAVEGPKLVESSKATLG

## CC1CNc2c(cccc2S(=O)(=O)N[C@@H](CCCNC(=N)N)C(=O)N2CC[C@@H](C)C[C@@H]2C(=O)O)C1 (stereo partly shown) [argatroban, reference compound]
[1]
  IC50 (estimated concentration which inhibits 50% of the aggregation): approximately 0.1 μM
[1]; listed as Free argatroban
  IC50 (estimated concentration which inhibits 50% of the aggregation): 0.1 to 0.15 µM

## RSA sham: RSA incubated for the same length of time at RT in 2% DMSO in PBS
[2]
  thrombin inhibition: not inhibitory at any concentration assayed
[1]
  IC50 (estimated concentration which inhibits 50% of the aggregation): > 150 µM
[1]; even at 150 μM
  interference with platelet aggregation: did not interfere with platelet aggregation even at 150 μM

## CC1CNc2c(cccc2S(=O)(=O)NC(CCCNC(=N)N)C(=O)N2CCC(C)CC2C(=O)NCCCCCCCCCCCC(=O)ON2C(=O)CCC2=O)C1 (stereo not shown) [compound YL-015-11]
[3]; 0.5 μM ester
  covalent addition of argatroban derivative molecules per HSA molecule: 0-4 argatroban derivative molecules per HSA molecule
[3]; 100 μM ester
  covalent addition of argatroban derivative molecules per HSA molecule: 1-5 argatroban derivative molecules per HSA molecule
[4]; 0.5 μM ester
  covalent addition of argatroban derivative molecules per RSA molecule: 0-3 argatroban derivative molecules per RSA molecule
[4]; 100 μM ester
  covalent addition of argatroban derivative molecules per RSA molecule: 1-5 argatroban derivative molecules per RSA molecule

B1: hGPA reacted with argatroban-C6 NHS ester: human glycophorin A protein reacted with argatroban-C6 NHS ester (YL-015-35) (conjugate, UniProt P02724 20-150, looked up)
Glycophorin-A: LSTTEVAMHTSTSSSVTKSYISSQTNDTHKRDTYAATPRAHEVSEISVRTVYPPEEETGERVQLAHHFSEPEITLIIFGVMAGVIGTILLISYGIRRLIKKSPSDVKPLPSPDTDVPLSSVEIENPETSDQ
modifications: argatroban-C6 conjugate
[5]; HSA and hGPA samples, FIGS. 5-8
  increase of OD490 versus prequenched ester or protein alone: significant increase of OD490
[5]; goat anti-rabbit erythrocyte capture
  concentration down to which detected: 60 ng/mL
[5]; mouse anti-hGPA capture
  concentration down to which detected: 30 ng/mL
[5]; hGPA, 3C10 mAb, FIG. 7
  detection of hGPA-argatroban derivative: at lower levels
[5]; hGPA, 3E4 mAb, FIG. 8
  detection of hGPA-argatroban derivative: at lower levels
[5]; hGPA, 5F4 mAb, FIG. 6
  concentration at which a significant signal above background was detected: ~12 ng/mL
[6]
  concentration giving a detectable signal (binding of thrombin): approximately 30 ng/ml
